Experiments:
ACE-1 = molecular target: T1, ACE-1 (Homo sapiens, UniProt P12821); format: biochemical
T1 construct: purchased Cambridge BioSciences (Cambridge, UK)

ACE-II = test system: ACE-II; design: method as in PMID 24131339; conditions: negative control in studies on marine cryptides; ref [49]; read-out: IC50 for ACE-II inhibition; cited from earlier work

T1 sequence (P12821 30-1306): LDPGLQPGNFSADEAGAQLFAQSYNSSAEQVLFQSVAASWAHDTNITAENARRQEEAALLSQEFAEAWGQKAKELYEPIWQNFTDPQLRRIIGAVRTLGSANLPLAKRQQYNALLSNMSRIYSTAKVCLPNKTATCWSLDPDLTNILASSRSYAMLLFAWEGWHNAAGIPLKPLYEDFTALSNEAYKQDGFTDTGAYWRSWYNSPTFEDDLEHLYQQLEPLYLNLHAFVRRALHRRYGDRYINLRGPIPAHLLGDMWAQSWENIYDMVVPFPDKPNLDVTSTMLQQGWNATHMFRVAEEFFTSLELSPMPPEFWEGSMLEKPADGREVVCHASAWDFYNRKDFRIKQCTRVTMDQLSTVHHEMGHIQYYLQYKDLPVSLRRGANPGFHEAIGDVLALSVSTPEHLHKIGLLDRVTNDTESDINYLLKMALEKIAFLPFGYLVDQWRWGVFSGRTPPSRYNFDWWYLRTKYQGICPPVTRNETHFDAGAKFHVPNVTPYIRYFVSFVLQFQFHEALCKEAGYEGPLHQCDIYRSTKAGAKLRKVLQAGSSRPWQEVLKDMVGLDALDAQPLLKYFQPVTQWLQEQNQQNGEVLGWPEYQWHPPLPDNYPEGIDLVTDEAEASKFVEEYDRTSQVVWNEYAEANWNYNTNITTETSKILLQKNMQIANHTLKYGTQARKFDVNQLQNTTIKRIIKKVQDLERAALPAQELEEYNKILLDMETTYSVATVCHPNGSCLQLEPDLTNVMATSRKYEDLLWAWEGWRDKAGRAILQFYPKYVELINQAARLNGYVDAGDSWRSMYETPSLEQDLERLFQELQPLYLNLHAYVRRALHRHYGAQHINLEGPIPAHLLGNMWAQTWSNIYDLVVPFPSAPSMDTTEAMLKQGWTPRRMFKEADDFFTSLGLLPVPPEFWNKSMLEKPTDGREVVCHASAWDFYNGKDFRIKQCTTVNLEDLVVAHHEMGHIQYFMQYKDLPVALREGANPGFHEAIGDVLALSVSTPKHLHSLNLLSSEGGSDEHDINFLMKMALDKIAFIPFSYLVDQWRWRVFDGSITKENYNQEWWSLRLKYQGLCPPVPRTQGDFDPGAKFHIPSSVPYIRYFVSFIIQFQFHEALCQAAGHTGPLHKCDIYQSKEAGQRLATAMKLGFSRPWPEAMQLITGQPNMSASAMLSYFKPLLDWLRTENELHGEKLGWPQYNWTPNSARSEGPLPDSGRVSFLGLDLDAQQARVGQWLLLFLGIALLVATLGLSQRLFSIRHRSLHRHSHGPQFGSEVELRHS

Molecule | ACE-1 inhibition (ACE-1) [%] | IC50 (ACE-II) [µM]
YIHNNPAKGGLF | 91 | –
CCCCc1nc(Cl)c(CO)n1Cc1ccc(-c2ccccc2-c2nn[nH]n2)cc1 [Losartan] | – | 17.1 to 146

— publication PMC9967564, “Identification of Bioactive Peptides from a Laminaria digitata Protein Hydrolysate Using In Silico and In Vitro Methods to Identify Angiotensin-1-Converting Enzyme (ACE-1) Inhibitory Peptides” (Marine Drugs, 2023)
